Among the data in article PMC6309520 (Cell chemical biology, 2018) are Km values, retold here.

Structures are written as SMILES.

For orientation: Km means the concentration of substrate that gives half-maximal velocity.

The experiment has as its target T1, ARH3 (ADP-ribosyl hydrolase 3, ADPRHL2) (Homo sapiens, UniProt Q9NX46).
T1 sequence (Q9NX46 1-363): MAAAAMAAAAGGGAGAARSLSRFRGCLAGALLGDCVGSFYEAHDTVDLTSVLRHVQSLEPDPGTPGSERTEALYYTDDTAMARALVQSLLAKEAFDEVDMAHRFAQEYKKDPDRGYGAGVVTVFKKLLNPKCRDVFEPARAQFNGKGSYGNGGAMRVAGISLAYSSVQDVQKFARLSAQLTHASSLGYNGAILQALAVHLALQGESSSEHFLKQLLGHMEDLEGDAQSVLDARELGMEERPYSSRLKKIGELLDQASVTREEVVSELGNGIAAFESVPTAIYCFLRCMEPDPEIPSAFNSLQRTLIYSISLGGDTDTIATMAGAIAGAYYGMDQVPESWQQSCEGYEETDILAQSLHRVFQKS
Briefly: Michaelis-Menten kinetics. It counts as biochemical.

Take `O=c1cc(C(F)(F)F)c2ccc(O[C@H]3O[C@H](COP(=O)(O)OP(=O)(O)OC[C@H]4O[C@@H](n5cnc6c(=O)[nH]cnc65)[C@H](O)[C@@H]4O)[C@@H](O)[C@H]3O)cc2o1` [compound 12, TFMU-IDPr]: the Km stood at 312 ± 30 µM.
